Numbered stars: 1 amine (or outer) side, 2 acyl side, 3 side chain; on linkers, the order of the positions; unused ones are H or OH. Bridge positions count the residues as written; N and C are the ends. Square brackets hold non-standard residues; d marks the D form. Peptide text beside a SMILES is read from it. * marks the point of attachment. Phe(3,4-(OMe)2) = COc1ccc(C[C@H](N)C(=O)O)cc1OC; Phe(3-CF3) = N[C@@H](Cc1cccc(C(F)(F)F)c1)C(=O)O; Ala(morpholin-4-yl) = N[C@@H](CN1CCOCC1)C(=O)O; Phe(4-COOH) = N[C@@H](Cc1ccc(C(=O)O)cc1)C(=O)O; Bip = N[C@@H](Cc1ccc(-c2ccccc2)cc1)C(=O)O; Phe(3-Me) = Cc1cccc(C[C@H](N)C(=O)O)c1; γGlu = O=C(O)[C@H](CCC(=O)[*:2])N[*:1]; NH(CH2)12COOH = O=C(O)CCCCCCCCCCCCN*; Val(3-OH) = CC(C)(O)[C@H](N)C(=O)O; Aha = [N-]=[N+]=NCC[C@H](N)C(=O)O; 4Pal = N[C@@H](Cc1ccncc1)C(=O)O; Cha = N[C@@H](CC1CCCCC1)C(=O)O; 3Abz = Nc1cccc(C(=O)O)c1; Carboxymethyl = O=C(O)C*; Orn = NCCC[C@H](N)C(=O)O; Pra = C#CC[C@H](N)C(=O)O; Aun = NCCCCCCCCCCC(=O)O; Dab = NCC[C@H](N)C(=O)O; Dap = NC[C@H](N)C(=O)O; AEEA = NCCOCCOCC(=O)O

The test deals with T1, PD-1/PD-L1 interaction (PE-labeled human PD-L1-Ig binding to Jurkat cell line over-expressing human PD-1) (Homo sapiens, UniProt Q15116).
T1 construct: expressed in transfected cells; host or cells: Jurkat
T1 sequence (Q15116 25-288): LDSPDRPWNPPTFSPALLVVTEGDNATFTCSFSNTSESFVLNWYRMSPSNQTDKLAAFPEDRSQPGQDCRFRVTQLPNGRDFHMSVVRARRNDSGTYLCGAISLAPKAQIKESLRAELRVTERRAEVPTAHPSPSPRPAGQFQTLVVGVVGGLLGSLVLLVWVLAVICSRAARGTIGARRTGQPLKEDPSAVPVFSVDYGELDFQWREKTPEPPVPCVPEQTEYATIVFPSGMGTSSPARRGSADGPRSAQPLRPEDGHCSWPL
The experiment in a line: Jurkat-PD-1 Cell Binding High-Content Screening Assay (CBA). It is filed as cell-based. Particulars: Jurkat cell line over-expressing human PD-1; PE-labeled PD-L1-Ig 20 nM final; read-out: Jurkat hPD1-PDL1 IC50. In short, it runs like this:
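Jurkat cells stably over-expressing human PD-1 were seeded in DMEM with 10% fetal calf serum and pre-incubated with compound for 2 h at 37° C. PE-labeled human PD-L1-Ig was then added at 20 nM final for 1 hour, after which cells were fixed with paraformaldehyde, Hoechst-stained and imaged by high-content microscopy.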
For `C#CC[C@H](NC(=O)[C@H](CCN)NC(=O)[C@@H]1CSCC(=O)N[C@@H](CN2CCOCC2)C(=O)N[C@@H](Cc2ccc(OCC(=O)O)cc2)C(=O)N[C@@H](CC(=O)O)C(=O)N[C@@H](Cc2cccc(C)c2)C(=O)N[C@@H](Cc2ccc(OCC(=O)O)cc2)C(=O)N[C@@H](Cc2ccc(-c3ccccc3)cc2)C(=O)N[C@@H](Cc2ccc(OCC(=O)O)cc2)C(=O)N[C@@H](CCCN)C(=O)N[C@H](CC(C)C)C(=O)N[C@@H](CCN)C(=O)N[C@@H](CC2CCCCC2)C(=O)N[C@@H](C(C)(C)O)C(=O)N[C@@H](CO)C(=O)N1)C(=O)NCCCCCCCCCCC(=O)O` [Compound 1279] ({CH2CO}-[Ala(morpholin-4-yl)]Y(Carboxymethyl)D[Phe(3-Me)]Y(Carboxymethyl)[Bip]Y(Carboxymethyl)[Orn][dL][Dab][Cha][Val(3-OH)]SC[Dab][Pra][Aun]-OH; thioether N-14), the IC50 is 9 nM.

Consider `COc1ccc(C[C@@H]2NC(=O)[C@H](Cc3cccc(C)c3)NC(=O)[C@H](CC(=O)O)NC(=O)[C@H](Cc3ccc(OCC(=O)O)cc3)NC(=O)[C@H](Cc3ccncc3)NC(=O)CSC[C@@H](C(=O)N[C@@H](CCN)C(=O)N[C@@H](CCN=[N+]=[N-])C(=O)NCCCCCCCCCCC(=O)O)NC(=O)[C@H](CO)NC(=O)[C@H](C(C)(C)O)NC(=O)[C@H](CC3CCCCC3)NC(=O)[C@H](CCN)NC(=O)[C@@H](CC(C)C)NC(=O)[C@H](CCCN)NC(=O)[C@H](Cc3ccc(OCC(=O)O)cc3)NC(=O)[C@H](Cc3ccc(-c4ccccc4)cc3)NC2=O)cc1` [Compound 1280] ({CH2CO}-[4Pal]Y(Carboxymethyl)D[Phe(3-Me)]Y(Me)[Bip]Y(Carboxymethyl)[Orn][dL][Dab][Cha][Val(3-OH)]SC[Dab][Aha][Aun]-OH; thioether N-14), for which the IC50 was 243 nM.

Consider `Cc1cccc(C[C@@H]2NC(=O)[C@H](CC(=O)O)NC(=O)[C@H](Cc3ccc(OCC(=O)O)cc3)NC(=O)[C@H](CN3CCOCC3)NC(=O)CSC[C@@H](C(=O)N[C@@H](CCN)C(=O)N[C@@H](CCN=[N+]=[N-])C(=O)NCCCCCCCCCCC(=O)O)NC(=O)[C@H](CO)NC(=O)[C@H](C(C)(C)O)NC(=O)[C@H](CC3CCCCC3)NC(=O)[C@H](CCN)NC(=O)[C@@H](CC(C)C)NC(=O)[C@H](CCCN)NC(=O)[C@H](Cc3ccc(OCC(=O)O)cc3)NC(=O)[C@H](Cc3ccc(-c4ccccc4)cc3)NC(=O)[C@H](Cc3ccc(OCC(=O)O)cc3)NC2=O)c1` [Compound 1281] ({CH2CO}-[Ala(morpholin-4-yl)]Y(Carboxymethyl)D[Phe(3-Me)]Y(Carboxymethyl)[Bip]Y(Carboxymethyl)[Orn][dL][Dab][Cha][Val(3-OH)]SC[Dab][Aha][Aun]-OH; thioether N-14), for which the IC50 was determined as 4.7 nM.

In the case of `CC(C)C[C@@H]1NC(=O)[C@H](Cc2c[nH]c3ccccc23)NC(=O)[C@H](CC(=O)O)NC(=O)[C@H](Cc2ccncc2)NC(=O)[C@H](Cc2ccc(OCC(=O)O)cc2)NC(=O)CSC[C@@H](C(=O)Nc2cccc(C(=O)NCCCCCCCCCCC(=O)O)c2)NC(=O)[C@H](CN)NC(=O)[C@H](C(C)C)NC(=O)[C@H](CC2CCCCC2)NC(=O)[C@H](CCN)NC(=O)[C@@H](CC(C)C)NC(=O)[C@H](CCCN)NC(=O)[C@H](C(C)C)NC(=O)[C@H](Cc2ccc(-c3ccccc3)cc2)NC1=O` [Compound 1282] ({CH2CO}-Y(Carboxymethyl)[4Pal]DWL[Bip]V[Orn][dL][Dab][Cha]V[Dap]C[3Abz][Aun]-OH; thioether N-14), the IC50 worked out at 631 nM.

On to `COc1ccc(C[C@@H]2NC(=O)[C@H](CC(=O)O)NC(=O)[C@H](Cc3ccc(OCC(=O)O)cc3)NC(=O)[C@H](CN)NC(=O)CSC[C@@H](C(=O)N[C@@H](CCN)C(=O)NCCOCCOCC(=O)NCCCCCCCCCCC(=O)O)NC(=O)[C@H](CCCN)NC(=O)[C@H](C(C)C)NC(=O)[C@H](CC3CCCCC3)NC(=O)[C@H](CCN)NC(=O)[C@@H](CC(C)C)NC(=O)[C@H](CCCN)NC(=O)[C@H](Cc3ccc(O)cc3)NC(=O)[C@H](Cc3ccc(-c4ccccc4)cc3)NC(=O)[C@H](C(C)C)NC2=O)cc1OC` [Compound 1283] ({CH2CO}-[Dap]Y(Carboxymethyl)D[Phe(3,4-(OMe)2)]V[Bip]Y[Orn][dL][Dab][Cha]V[Orn]C[Dab][AEEA][Aun]-OH; thioether N-14), for which the IC50 was determined as 731 nM.

In the case of `Cc1cccc(C[C@@H]2NC(=O)[C@H](CC(=O)O)NC(=O)[C@H](Cc3ccc(OCC(=O)O)cc3)NC(=O)[C@H](CCN)NC(=O)CSC[C@@H](C(=O)N[C@@H](CCN)C(=O)NCCOCCOCC(=O)N[C@@H](CC(=O)O)C(=O)NCCOCCOCC(=O)N[C@@H](CCC(=O)NCC(=O)NCCCCCCCCCCCCC(=O)O)C(=O)O)NC(=O)[C@H](Cc3cnc[nH]3)NC(=O)[C@H](C(C)(C)O)NC(=O)[C@H](CC3CCCCC3)NC(=O)[C@H](CCN)NC(=O)[C@@H](CC(C)C)NC(=O)[C@H](CCCN)NC(=O)[C@H](Cc3ccc(C(=O)O)cc3)NC(=O)[C@H](Cc3ccc(-c4ccccc4)cc3)NC(=O)[C@H](Cc3ccc(C(=O)O)cc3)NC2=O)c1` [Compound 1285] ({CH2CO}-[Dab]Y(Carboxymethyl)D[Phe(3-Me)][Phe(4-COOH)][Bip][Phe(4-COOH)][Orn][dL][Dab][Cha][Val(3-OH)]HC[Dab][AEEA]D[AEEA][γGlu]G-{NH(CH2)12COOH}; thioether N-14), the IC50 worked out at 6.4 nM.

With `C#CC[C@H](NC(=O)[C@H](CCN)NC(=O)[C@@H]1CSCC(=O)N[C@@H](CN2CCOCC2)C(=O)N[C@@H](Cc2ccc(OCC(=O)O)cc2)C(=O)N[C@@H](CC(=O)O)C(=O)N[C@@H](Cc2cccc(C)c2)C(=O)N[C@@H](Cc2ccc(C(=O)O)cc2)C(=O)N[C@@H](Cc2ccc(-c3ccccc3)cc2)C(=O)N[C@@H](Cc2ccc(C(=O)O)cc2)C(=O)N[C@@H](CCCN)C(=O)N[C@H](CC(C)C)C(=O)N[C@@H](CCN)C(=O)N[C@@H](CC2CCCCC2)C(=O)N[C@@H](C(C)(C)O)C(=O)N[C@@H](CO)C(=O)N1)C(=O)NCCCCCCCCCCC(=O)O` [Compound 1286] ({CH2CO}-[Ala(morpholin-4-yl)]Y(Carboxymethyl)D[Phe(3-Me)][Phe(4-COOH)][Bip][Phe(4-COOH)][Orn][dL][Dab][Cha][Val(3-OH)]SC[Dab][Pra][Aun]-OH; thioether N-14), the IC50 worked out at 5.6 nM.

In the case of `CC(C)C[C@H]1NC(=O)[C@H](CCCN)NC(=O)[C@H](Cc2ccc(O)cc2)NC(=O)[C@H](Cc2ccc(-c3ccccc3)cc2)NC(=O)[C@H](Cc2ccc(OCC(=O)O)cc2)NC(=O)[C@H](Cc2cccc(C(F)(F)F)c2)NC(=O)[C@H](CC(=O)O)NC(=O)[C@H](Cc2ccc(OCC(=O)O)cc2)NC(=O)[C@H](CN)NC(=O)CSC[C@@H](C(=O)N[C@@H](CCN)C(=O)NCCOCCOCC(=O)NCCCCCCCCCCC(=O)O)NC(=O)[C@H](CCCN)NC(=O)[C@H](C(C)C)NC(=O)[C@H](CC2CCCCC2)NC(=O)[C@H](CCN)NC1=O` [Compound 1287] ({CH2CO}-[Dap]Y(Carboxymethyl)D[Phe(3-CF3)]Y(Carboxymethyl)[Bip]Y[Orn][dL][Dab][Cha]V[Orn]C[Dab][AEEA][Aun]-OH; thioether N-14), the IC50 is 8.2 nM.

These data come from US20260022142A1, “MACROCYCLIC IMMUNOMODULATORS” (Bristol-Myers Squibb Company, priority 2022, published 2026).
